# Measurements: patent US8178505B2, “Method of predicting and reducing risk of metastasis of breast cancer to lung” (Sloan-Kettering Institute for Cancer Research, priority 2005, dated 2012)
# Key:
# LM2 cells = test: Lung metastasis formation after tail vein injection of LM2 cells, pharmacological targeting, bioluminescence imaging; assay type: in vivo, Balb/c nude mice; conditions: preliminary results; drugs individually or in combination; FIGS. 2A and 2B
# Description: Animal studies. All animal work was done in accordance with an IACUC approved protocol. Four to 6-week-old Balb/c nude mice (NCI) were used for all xenografting studies. For lung metastasis formation, 2×10^5 viable cells were washed and harvested in PBS and subsequently injected into the lateral tail vein in a volume of 0.1 mL. Endpoint assays were conducted at 15 weeks post-injection unless significant morbidity required that the mouse be sacrificed earlier. […] Mice were imaged for luciferase activity immediately after injection to exclude any that were not successfully xenografted.
# Bioluminescent imaging and analysis. Mice were anesthetized and retro-orbitally injected with 1.5 mg of D-luciferin (15 mg/mL in PBS). Imaging was completed between 2-5 minutes post-injection using a Xenogen IVIS system coupled to Living Image acquisition and analysis software (Xenogen). For BLI plots, photon flux was calculated for each mouse using a rectangular region of interest (ROI) encompassing the thorax of the mouse in a prone position.
# malignant cell lines = conditions: in culture; cited from earlier work
# MMP-1, 3, 9, 10 and 11 = conditions: cited from earlier work
SMILES,preventing lung metastasis (LM2 cells),differentiation and growth of malignant cell lines (malignant cell lines),"production of MMP-1, 3, 9, 10 and 11 (MMP-1, 3, 9, 10 and 11; by inhibiting PKC)","direct effect on activity of MMPs (MMP-1, 3, 9, 10 and 11)"
"CNC(=O)[C@H](Cc1c[nH]c2ccccc12)NC(=O)[C@@H](CC(=O)NO)CC(C)C [GM-6001, Ilomastat]",findings similar to those obtained using genetic knockdowns,,,
CCC/C=C/C=C/C(=O)O[C@H]1/C(=C/C(=O)OC)C[C@H]2C[C@H]([C@@H](C)O)OC(=O)C[C@H](O)C[C@@H]3C[C@H](OC(C)=O)C(C)(C)[C@](O)(C[C@@H]4C/C(=C/C(=O)OC)C[C@H](/C=C/C(C)(C)[C@]1(O)O2)O4)O3 [bryostatin-1],,induce differentiation and halt the growth of several malignant cell lines,"can inhibit the production of MMP-1, 3, 9, 10 and 11",does not directly affect the activity of MMPs
